The source of these data is patent US20260151375A1, “CDK2 INHIBITORS AND METHODS OF USING THE SAME” (Cedilla Therapeutics, Inc., priority 2022, published 2026).

Where two headings read alike, the source gives them in different places.

In one assay the target is T1, CDK2/Cyclin E1 (Homo sapiens, UniProt P24941).
T1 construct: purchased 14-475
Put plainly: ADPGLO (CDK2/E1-37 C), ADP-Glo Luminescent Kinase Assay. The format is biochemical. The conditions noted are these: 0.18 nM CDK2/Cyclin E1, 100 μM ATP, Histone H1, 37° C. The method, then:
Inhibition of CDK2/Cyclin E1 activity by the presence of small molecules was evaluated using ADP-Glo Luminescent Kinase Assay (Promega). Activated CDK2/Cyclin E1 was incubated with its substrate Histone H1 (SignalChem H10-54N) in the kinase reaction buffer (100 μM ATP, 50 mM HEPES pH 7.5, 10 mM MgCl2, 1 mM EDTA, 2 mM DTT, 0.01% Brij35, 0.5 mg/mL BSA). Luminescence was recorded with an Envision plate reader (PerkinElmer).
Dose titrations of inhibitors in 100% DMSO were combined with 0.36 nM CDK2/Cyclin E1 in reaction buffer. The mixtures were incubated for 60 minutes at 37° C. before the addition of ATP and Histone H1 substrate to initiate the kinase reaction. The final conditions were 0.18 nM CDK2/Cyclin E1, 100 μM ATP, and 1.5 μM Histone H1. The reactions were incubated at 37° C. for 90 minutes before being stopped with the addition of ADP-Glo reagent. This mixture was incubated at room temperature for 60 minutes before Kinase Detection Solution is added to generate luminescence. The stopped reactions were analyzed on an Envision plate reader. The conversion ratios were normalized to yield % activity, plotted against compound concentration, and fit to a four-parameter equation to determine the IC50 for each compound.
Background: ADP-Glo first removes unused ATP, then detects ADP through luciferase.

In the next assay the test system is Kuramochi cells. Put plainly: IncuCyte Kuramochi Assay (cell proliferation). The format is cell-based. The conditions noted are these: Kuramochi cells labeled with mApple-H2B, cell count, read-out: IncuCyte - Kuramochi RB-WT: IC50. The essentials:
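GI50 came from dose-response fits of cell-count fold change between 0 and 72 h, normalized to DMSO controls. Counts were fluorescent nuclei from live-cell images over a 10-point, ½ log series starting at 20 μM.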

As to `CC(c1nc(C2CN(C(=O)c3cnn(Cc4nnnn4C)c3)CC23CN(C(=O)[C@H]2CC2(C)C)C3)no1)n1ccc(C2CCCC2)n1` (stereo partly drawn) [I-111, (8-(5-(1-(3-cyclopentyl-1H-pyrazol-1-yl)ethyl)-1,2,4-oxadiazol-3-yl)-2-((S)-2,2-dimethylcyclopropane-1-carbonyl)-2,6-diazaspiro[3.4]octan-6-yl)(1-((1-methyl-1H-tetrazol-5-yl)methyl)-1H-pyrazol-4-yl)methanone], the IC50 (commonly the concentration that gives 50% inhibition) lay within 0.5 to 5 µM at CDK2/Cyclin E1 and 5 to 10 µM in the assay on Kuramochi cells (72 h).
For `O=C(c1cncc(O)n1)N1CC(c2nnc(C(F)(F)c3ccc(Cl)c(Cl)c3)o2)C2(C1)CN(C(=O)[C@H]1CC1(F)F)C2` (stereo partly drawn) [I-112, (8-(5-((3,4-dichlorophenyl)difluoromethyl)-1,3,4-oxadiazol-2-yl)-2-((R)-2,2-difluorocyclopropane-1-carbonyl)-2,6-diazaspiro[3.4]octan-6-yl)(6-hydroxypyrazin-2-yl)methanone], the IC50 at CDK2/Cyclin E1 and in the assay with Kuramochi cells (72 h) was more than 10 µM each time.
With `CC(c1nc(C2CN(C(=O)c3cnn(Cc4ccc(C(O)C(F)(F)F)cc4)c3)CC23CN(C(=O)[C@H]2CC2(C)C)C3)no1)n1ccc(C2CCCC2)n1` (stereo partly drawn) [I-113], the concentration for half-maximal inhibition (IC50) at CDK2/Cyclin E1 and with Kuramochi cells (72 h) was 0.5 to 5 µM throughout.
For the molecule `CC(c1nc(C2CN(C(=O)c3cnn(Cc4nnn[nH]4)c3)CC23CN(C(=O)[C@H]2CC2(C)C)C3)no1)n1ccc(C2CCCC2)n1` (stereo partly drawn) [I-114, (1-((1H-tetrazol-5-yl)methyl)-1H-pyrazol-4-yl)(8-(5-(1-(3-cyclopentyl-1H-pyrazol-1-yl)ethyl)-1,2,4-oxadiazol-3-yl)-2-((S)-2,2-dimethylcyclopropane-1-carbonyl)-2,6-diazaspiro[3.4]octan-6-yl)methanone], the half-maximal inhibitory concentration (IC50) against CDK2/Cyclin E1 is 0.5 to 5 µM; in the assay with Kuramochi cells (72 hours), more than 10 µM.
Take `CC(c1nc(C2CN(C(=O)c3cnc(O)cn3)CC23CN(C(=O)C2(C(F)(F)F)CC2)C3)no1)n1ccc(C2CCOCC2)n1` (stereo not drawn) [I-115]: the IC50 was 0.5 to 5 µM against CDK2/Cyclin E1 and 5 to 10 µM in the assay with Kuramochi cells (72 h).
Take `CC(c1nc(C2CN(C(=O)c3cnc(O)cn3)CC23CN(C(=O)[C@H]2CC2(F)F)C3)no1)n1ccc(C2CCOCC2)n1` (stereo partly drawn) [I-116, (2-((R)-2,2-difluorocyclopropane-1-carbonyl)-8-(5-(1-(3-(tetrahydro-2H-pyran-4-yl)-1H-pyrazol-1-yl)ethyl)-1,2,4-oxadiazol-3-yl)-2,6-diazaspiro[3.4]octan-6-yl)(5-hydroxypyrazin-2-yl)methanone]: the 50% inhibitory concentration (IC50) on CDK2/Cyclin E1 and in the assay on Kuramochi cells (72 h) was more than 10 µM each time.
`COC(=O)c1ccc(Cn2cc(C(=O)N3CC(c4noc(C(C)n5ccc(C6CCCC6)n5)n4)C4(C3)CN(C(=O)[C@H]3CC3(C)C)C4)cn2)cn1` (stereo partly drawn) [I-117]: the IC50 against CDK2/Cyclin E1 was 0.5 to 5 µM; in the assay on Kuramochi cells (72 h), more than 10 µM.
The corresponding values for `CC(c1nc(C2CN(C(=O)c3cnn(CC#N)c3)CC23CN(C(=O)[C@H]2CC2(C)C)C3)no1)n1ccc(C2CCCC2)n1` (stereo partly drawn) [I-119, 2-(4-(8-(5-(1-(3-cyclopentyl-1H-pyrazol-1-yl)ethyl)-1,2,4-oxadiazol-3-yl)-2-((S)-2,2-dimethylcyclopropane-1-carbonyl)-2,6-diazaspiro[3.4]octane-6-carbonyl)-1H-pyrazol-1-yl)acetonitrile] are 0.5 to 5 µM and more than 10 µM.
Consider `O=C(c1cc(O)n[nH]1)N1CC(c2nnc(C(F)(F)c3ccc(Cl)c(Cl)c3)o2)C2(C1)CN(C(=O)[C@H]1CC1(F)F)C2` (stereo partly drawn) [I-120, (8-(5-((3,4-dichlorophenyl)difluoromethyl)-1,3,4-oxadiazol-2-yl)-2-((R)-2,2-difluorocyclopropane-1-carbonyl)-2,6-diazaspiro[3.4]octan-6-yl)(3-hydroxy-1H-pyrazol-5-yl)methanone], for which the IC50 at CDK2/Cyclin E1 and with Kuramochi cells (72 h) was more than 10 µM in each case.
